Data: PubChem BioAssay AID330 (DTP/NCI, 2004)
Several values for one entry are separate records, joined by “and”; a condition that tells them apart may be missing. Identical values can stand only once. Inconclusive results and toxic doses are left out. The calls were made as follows: active = survival T/C of 150% or more; inactive = T/C below 125% in these data.

Test system: P388 leukemia ip, CD2F1 mice, survival T/C
Assay: NCI In Vivo Anticancer Drug Screen. Data for tumor model P388 Leukemia (intraperitoneal) in CD2F1 (CDF1) mice
Conditions: endpoint: median survival time, higher = longer survival
How it was run: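 Mice carrying the transplanted tumor received test compound or vehicle. Survival was recorded in each group, and the value is the treated-group measurement divided by that of the vehicle-treated control group.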

[1] = dose: 50.0 mg/kg/injection, schedule: Q01DX005 (ip), vehicle: Klucel (hydroxypropylcellulose) (HPC)
[2] = dose: 100.0 mg/kg/injection, schedule: Q01DX005 (ip), vehicle: Klucel (hydroxypropylcellulose) (HPC)
[3] = dose: 200.0 mg/kg/injection, schedule: Q01DX005 (ip), vehicle: Klucel (hydroxypropylcellulose) (HPC)
[4] = dose: 100.0 mg/kg/injection, schedule: Q01DX001 (ip), vehicle: saline with Tween-80
[5] = dose: 200.0 mg/kg/injection, schedule: Q01DX001 (ip), vehicle: saline with Tween-80
[6] = dose: 50.0 mg/kg/injection, schedule: Q01DX005 (ip), vehicle: saline with Tween-80
[7] = dose: 100.0 mg/kg/injection, schedule: Q01DX005 (ip), vehicle: saline with Tween-80
[8] = dose: 200.0 mg/kg/injection, schedule: Q01DX005 (ip), vehicle: saline with Tween-80
[9] = dose: 12.5 mg/kg/injection, schedule: Q01DX005 (ip), vehicle: Klucel (hydroxypropylcellulose) (HPC)
[10] = dose: 12.5 mg/kg/injection, schedule: Q01DX009 (ip), vehicle: saline with Tween-80
[11] = dose: 25.0 mg/kg/injection, schedule: Q01DX009 (ip), vehicle: saline with Tween-80
[12] = dose: 50.0 mg/kg/injection, schedule: Q01DX009 (ip), vehicle: saline with Tween-80
[13] = dose: 100.0 mg/kg/injection, schedule: Q01DX009 (ip), vehicle: saline with Tween-80
[14] = dose: 25.0 mg/kg/injection, schedule: Q01DX005 (ip), vehicle: Klucel (hydroxypropylcellulose) (HPC)
[15] = dose: 50.0 mg/kg/injection, schedule: Q01DX009 (ip), vehicle: saline
[16] = dose: 100.0 mg/kg/injection, schedule: Q01DX009 (ip), vehicle: saline
[17] = dose: 200.0 mg/kg/injection, schedule: Q01DX009 (ip), vehicle: saline

Measured: T/C

CCOC(=O)c1c(N)sc2c1CCCC2
inactive: dose: 50.0 mg/kg/injection, schedule: Q04DX003 (ip), vehicle: saline with Tween-80 101 % of control | dose: 100.0 mg/kg/injection, schedule: Q01DX001 (ip), vehicle: saline sonified 100 % of control | dose: 100.0 mg/kg/injection, schedule: Q04DX003 (ip), vehicle: saline with Tween-80 108 % of control | dose: 200.0 mg/kg/injection, schedule: Q01DX001 (ip), vehicle: saline sonified 100 % of control | dose: 200.0 mg/kg/injection, schedule: Q04DX003 (ip), vehicle: saline with Tween-80 105 % of control | dose: 400.0 mg/kg/injection, schedule: Q01DX001 (ip), vehicle: saline sonified 100 % of control | dose: 400.0 mg/kg/injection, schedule: Q04DX003 (ip), vehicle: saline with Tween-80 101 % of control

CC(=O)C(=O)c1ccc(O)cc1
inactive: dose: 10.0 mg/kg/injection, schedule: Q01DX009 (ip), vehicle: saline with Tween-80 96 % of control | dose: 20.0 mg/kg/injection, schedule: Q01DX009 (ip), vehicle: saline with Tween-80 94 % of control | dose: 40.0 mg/kg/injection, schedule: Q01DX009 (ip), vehicle: saline with Tween-80 99 % of control

CCN(CC)C(=O)OC1Cc2ccccc2CCc2ccccc2C1
inactive: dose: 100.0 mg/kg/injection, schedule: Q04DX003 (ip), vehicle: Klucel (hydroxypropylcellulose) (HPC) 103 % of control | dose: 200.0 mg/kg/injection, schedule: Q04DX003 (ip), vehicle: Klucel (hydroxypropylcellulose) (HPC) 101 % of control | dose: 400.0 mg/kg/injection, schedule: Q04DX003 (ip), vehicle: Klucel (hydroxypropylcellulose) (HPC) 101 % of control

CC1CCCN(c2cc(N(C)C)c([N+](=O)[O-])cc2F)C1 (centres undefined)
inactive: [1] 99 % of control | [2] 107 % of control | [3] 105 % of control

N#CC(=Nc1cccc(F)c1)C1=C(O)c2ccccc2C1=O
inactive: dose: 60.0 mg/kg/injection, schedule: Q01DX005 (ip), vehicle: saline with Tween-80 100 % of control | dose: 120.0 mg/kg/injection, schedule: Q01DX005 (ip), vehicle: saline with Tween-80 97 % of control

Cc1ccc(S(=O)(=O)NNC(=O)CCC(=O)NS(C)(=O)=O)cc1
inactive: [4] 100 % of control | [5] 97 % of control | dose: 400.0 mg/kg/injection, schedule: Q01DX001 (ip), vehicle: saline with Tween-80 93 % of control

O=C(CN(OC(=O)c1ccccc1)C(=O)c1ccccc1)OCc1ccccc1
inactive: dose: 12.5 mg/kg/injection, schedule: Q01DX009 (ip), vehicle: distilled water + Tween-80 92 % of control | dose: 25.0 mg/kg/injection, schedule: Q01DX009 (ip), vehicle: distilled water + Tween-80 99 % of control | dose: 50.0 mg/kg/injection, schedule: Q01DX009 (ip), vehicle: distilled water + Tween-80 99 % of control | dose: 100.0 mg/kg/injection, schedule: Q01DX009 (ip), vehicle: distilled water + Tween-80 100 % of control | dose: 200.0 mg/kg/injection, schedule: Q01DX009 (ip), vehicle: distilled water + Tween-80 101 % of control

N#Cc1cn(Cc2ccccc2)c2ccccc2c1=O
inactive: [1] 100 % of control | [2] 103 % of control | [3] 103 % of control

COC1(OC)C(c2ccccc2)C(C#N)(C#N)C1(OC)OC (centres undefined)
inactive: dose: 60.0 mg/kg/injection, schedule: Q01DX005 (ip), vehicle: Klucel (hydroxypropylcellulose) (HPC) 102 % of control | dose: 120.0 mg/kg/injection, schedule: Q01DX005 (ip), vehicle: Klucel (hydroxypropylcellulose) (HPC) 100 % of control | dose: 240.0 mg/kg/injection, schedule: Q01DX005 (ip), vehicle: Klucel (hydroxypropylcellulose) (HPC) 99 % of control

C=C1C(=O)OC2/C=C(\C)CC/C=C(/C(=O)OC)C(OC(C)=O)C(OC(=O)C(C)(O)C(C)O)C12 (centres undefined)
inactive: dose: 3.0 mg/kg/injection, schedule: Q01DX009 (ip), vehicle: Klucel (hydroxypropylcellulose) (HPC) 116 % of control | dose: 12.0 mg/kg/injection, schedule: Q01DX009 (ip), vehicle: Klucel (hydroxypropylcellulose) (HPC) 122 % of control | dose: 24.0 mg/kg/injection, schedule: Q01DX009 (ip), vehicle: Klucel (hydroxypropylcellulose) (HPC) 120 % of control

COc1ccc2[nH]c(=O)c(C(C)=O)c(O)c2c1
inactive: [6] 103 % of control | [7] 105 % of control | [8] 101 % of control

CCc1c(CNc2ccc(Cl)c(Cl)c2)ccc2nc(N)nc(N)c12
inactive: [9] 109 % of control

O=C(CCl)N1c2ccccc2Sc2c1ccc1ccccc21
inactive: dose: 3.12 mg/kg/injection, schedule: Q01DX009 (ip), vehicle: saline with Tween-80 103 % of control | dose: 6.25 mg/kg/injection, schedule: Q01DX009 (ip), vehicle: saline with Tween-80 104 % of control | dose: 6.25 mg/kg/injection, schedule: Q01DX009 (ip), vehicle: suspension in saline 100 % of control | [10] 120 % of control | dose: 12.5 mg/kg/injection, schedule: Q01DX009 (ip), vehicle: suspension in saline 102 % of control and 122 % of control | [11] 116 % of control | dose: 25.0 mg/kg/injection, schedule: Q01DX009 (ip), vehicle: suspension in saline 103 % of control and 118 % of control | [12] 116 % of control | dose: 50.0 mg/kg/injection, schedule: Q01DX009 (ip), vehicle: suspension in saline 103 % of control | [13] 110 % of control | dose: 100.0 mg/kg/injection, schedule: Q01DX009 (ip), vehicle: suspension in saline 102 % of control and 123 % of control | dose: 200.0 mg/kg/injection, schedule: Q01DX009 (ip), vehicle: suspension in saline 108 % of control

C=C1CCC2C(C)(CO)C(O)CCC2(C)C1C/C=C1\C(=O)OCC1O (centres undefined)
inactive: [14] 109 % of control | [1] 108 % of control | [2] 114 % of control | [3] 117 % of control

Cc1ccn2c([N+](=O)[O-])cnc2c1
inactive: [12] 107 % of control | [13] 104 % of control | dose: 200.0 mg/kg/injection, schedule: Q01DX009 (ip), vehicle: saline with Tween-80 102 % of control

NCCCCC(NC(=O)OCC1c2ccccc2-c2ccccc21)C(=O)O (centres undefined)
inactive: [1] 99 % of control | [2] 99 % of control | [3] 109 % of control

COc1ccc(S(=O)(=O)N/N=C/c2cc([N+](=O)[O-])ccc2O)cc1
inactive: [6] 101 % of control | [7] 107 % of control | [8] 119 % of control

Oc1ccccc1-c1cc(-c2ccccc2)nc(NCCCCNc2nc(-c3ccccc3)cc(-c3ccccc3O)n2)n1
inactive: [9] 97 % of control | [14] 97 % of control | [1] 94 % of control | [2] 88 % of control

C=CCCCCCCCCCC(CCCCCC)C(=O)O (centres undefined)
inactive: dose: 50.0 mg/kg/injection, schedule: Q01DX001 (ip), vehicle: saline with Tween-80 91 % of control | [4] 100 % of control | [5] 95 % of control

OCCOCCSc1ccccn1
inactive: dose: 50.0 mg/kg/injection, schedule: Q01DX005 (ip), vehicle: saline 109 % of control | dose: 100.0 mg/kg/injection, schedule: Q01DX005 (ip), vehicle: saline 111 % of control | dose: 200.0 mg/kg/injection, schedule: Q01DX005 (ip), vehicle: saline 111 % of control

O=C(c1ccc([N+](=O)[O-])cc1)C(Br)C(Br)c1ccncc1 (centres undefined)
inactive: dose: 25.0 mg/kg/injection, schedule: Q01DX009 (ip), vehicle: other 110 % of control | dose: 50.0 mg/kg/injection, schedule: Q01DX009 (ip), vehicle: other 104 % of control | dose: 100.0 mg/kg/injection, schedule: Q01DX009 (ip), vehicle: other 106 % of control | dose: 200.0 mg/kg/injection, schedule: Q01DX009 (ip), vehicle: other 103 % of control

c1nnc(NCNc2nncs2)s1
inactive: dose: 200.0 mg/kg/injection, schedule: Q04DX003 (ip), vehicle: saline 109 % of control
active: dose: 100.0 mg/kg/injection, schedule: Q04DX003 (ip), vehicle: saline 240 % of control

CC(C)(CO)C(O)C(=O)NCCCO (centres undefined)
inactive: [15] 103 % of control | [16] 98 % of control | [17] 100 % of control

CCOC(=O)/C=C1/SC(N2CCCCC2)C(=O)N1C (centres undefined)
inactive: [15] 100 % of control | [16] 104 % of control | [17] 100 % of control

COc1ccc(/C=C/c2ccc3ccccc3[n+]2C)cc1
inactive: dose: 11.0 mg/kg/injection, schedule: Q01DX009 (ip), vehicle: saline with Tween-80 122 % of control | [10] 124 % of control | [11] 122 % of control
